Experimental data published in the METLIN SMRT retention time set (Domingo-Almenara et al. 2019).

Test: gradient 5% acetonitrile 3 min, to 50% in 2 min, to 85% in 15 min, held 3 min, 100 µL/min
Conditions: column: Zorbax Extend-C18 2.1 x 50 mm; eluents: water / acetonitrile, 0.1% formic acid
Method in brief: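 Values are retention times taken from adduct peaks that software picked and an analyst inspected. The pure standards were run as mixtures of ~100 molecules on HPLC linked to a quadrupole time-of-flight mass spectrometer, in positive and negative ionization mode. A Zorbax Extend-C18 column (2.1 × 50 mm, 1.8 μm) was used at 100 μL/min with water and acetonitrile, each including 0.1% formic acid.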

| RP-LC retention time [s] | SMILES |
| --- | --- |
| 844 | Cc1nc(-c2csc(S(=O)(=O)N3CCC(C(=O)NCc4ccccc4)CC3)c2)no1 |
| 827 | Cc1ccc(S(=O)(=O)N2CCCC(Cn3cnc4cccnc43)C2)cc1C (stereo not given) |
| 754 | COc1ccc(OC)c(CNC(=O)C2CCN(c3ncnc4c3oc3ccccc34)CC2)c1 |
| 762 | CCn1cnc(S(=O)(=O)N2CCC(C(=O)N3CCN(c4ccccc4F)CC3)CC2)c1 |
| 905 | CCNC(=O)C1CCN(c2nc3ccc(-c4cccc(F)c4)nc3s2)CC1 |
| 1060 | CCOc1ccc(NC(=O)c2cn(C)nc2S(=O)(=O)N2CCC(C)CC2)cc1 |
| 840 | CN(C)S(=O)(=O)c1ccc(-c2nnc(C(=O)NCc3ccccc3F)o2)cc1 |
| 1010 | CC1CCN(C(=O)C2=NN(Cc3ccccc3)c3ccccc3S2(=O)=O)CC1 |
| 827 | COc1ccc(NC(=O)N2CCOc3ccc(C)cc32)cc1OC |
| 917 | CCn1c(=O)sc2cc(S(=O)(=O)N3CCC(C(=O)Nc4ccc(F)cc4)CC3)ccc21 |
| 801 | CCCCc1ccc(NC(=O)Cn2cnc3nc(N4CCCC(C(=O)NCC)C4)sc3c2=O)cc1 (stereo not given) |
| 868 | CCn1c(=O)c(N2CCN(C(=O)Nc3ccc4c(c3)OCO4)CC2)nc2ccccc21 |
| 1110 | Cc1ccc(NC(=O)Cn2nc3c(N4CCN(c5ccccc5C)CC4)nccn3c2=O)cc1F |
| 769 | CN1c2cc(F)ccc2C(=O)NC12CCN(C(=O)c1cccc(F)c1)CC2 |
| 889 | Cc1cccc(CNC(=O)CN2CCN(Cc3ccc(F)cc3Cl)C2=O)c1 |
| 650 | COc1ccc(NC(=O)CN2CCc3[nH]c4c(C)c(C)ccc4c(=O)c3C2)cc1Cl |
| 682 | O=C(c1ccccc1[N+](=O)[O-])N1CCN(Cc2nc(-c3ccco3)cs2)CC1 |
| 766 | COc1ccc(-c2cn3c(CC(=O)Nc4ccc(F)cc4Cl)csc3n2)cc1OC |
| 636 | CN(C)CCNC(=O)C1CCN(c2nn3cc(-c4ccc(F)cc4)nc3s2)CC1 |

| RP-LC retention time [s] | SMILES |
| --- | --- |
| 1260 | Cc1cc(F)ccc1NS(=O)(=O)c1cc(-c2nc(C(C)(C)C)cs2)cs1 |
| 669 | COc1ccc(C2Cn3cnc(C(=O)N4CCC(C(=O)NC(C)C)CC4)c3CO2)cc1 (stereo not given) |
| 935 | CCc1ccccc1NC(=O)COc1cc(C)nc(N2CCN(c3ccccc3)CC2)n1 |
| 851 | Cc1nc(-c2ccc(N3CCN(C(=O)COc4ccccc4)CC3)nc2)sc1C |
| 873 | O=C(NCCc1ccco1)c1ccc2cnn(Cc3ccc(F)cc3)c2c1 |
| 844 | CCOc1ccc(NC(=O)CSC2=C(C#N)C(c3cccs3)CC(=O)N2)cc1 (stereo not given) |
| 698 | CN1CCN(Cc2ccc(C(=O)NCCC3=CCCCC3)cc2)C(=O)C1=O |
| 651 | CCOc1ccc(S(=O)(=O)N2CCC3(CC2)c2nccn2CCN3C)cc1 |
| 668 | CCOC(=O)C1=C(CN2CCN(c3ccccn3)CC2)NC(=O)NC1c1ccc(OC(C)C)cc1 (stereo not given) |
| 957 | COc1ccccc1-c1noc(C2CCCN2C(=O)Nc2cc(C)cc(C)c2)n1 (stereo not given) |
| 780 | CCOc1ccccc1CNC(=O)C1CCN(Cc2c(C)n(CC)c3ccccc23)CC1 |
| 790 | COc1ccc(NC(=O)Cn2nc3c(Oc4ccccc4C)nccn3c2=O)cc1 |
| 852 | CSc1cccc(NC(=O)N2CCC(C)(C(=O)NCc3ccccc3)CC2)c1 |
| 755 | CCc1cccc(NC(=O)Cn2cnc3nc(N4CCCC(C(=O)NC(C)C)C4)sc3c2=O)c1 (stereo not given) |
| 853 | Cc1ccc(Nc2nc(C(=O)NC3CCCC3)nc3ccccc23)cc1 |
| 856 | CC(C)Cc1ccc(S(=O)(=O)N2CCC3(CC2)NCCN=C3NCc2ccccc2)cc1 |
| 966 | Cn1c(=O)c(N2CCN(C(=O)c3ccc(F)c(Cl)c3)CC2)nc2ccccc21 |
| 820 | Cc1ccc(CN2C(=O)NC3(CCN(C(=O)c4cccs4)CC3)C2=O)cc1 |
| 897 | CC12CC(c3ccccc3O1)C(C(=O)Nc1cccc(C(F)(F)F)c1)C(=O)N2 (stereo not given) |

Further lines, the molecule ahead of its results:

| SMILES | RP-LC retention time [s] |
| --- | --- |
| O=C(CN1C(=O)CC(c2ccccc2)S(=O)(=O)c2ccccc21)NCCc1ccccc1 (stereo not given) | 855 |
| Fc1ccccc1-c1noc(Cc2nnc(-c3cccc(Cl)c3)o2)n1 | 1080 |
| COCCn1cc(CCNC(=O)Nc2ccc(C)cc2Cl)c2cccnc21 | 790 |
| Cc1nc2cc(-c3noc(CNC(=O)c4cccs4)n3)ccc2o1 | 747 |
| O=C(CCc1c(-c2ccc(Cl)cc2)nc2ccccn12)Nc1cccc(C(F)(F)F)c1 | 782 |
| CC(C)CNC(=O)c1cn(-c2ccc(NC(=O)C(C)C)cn2)cn1 | 702 |
| N#CC1=C(SCC(=O)NCc2ccccc2)NC(=O)CC1c1cccc([N+](=O)[O-])c1 (stereo not given) | 803 |
| O=C(CCc1c(-c2ccc(Br)cc2)nc2ccccn12)NCCC1=CCCCC1 | 753 |
| O=C(O)CCC(=O)Nc1cccc(C(=O)O)c1 | 555 |
| CC(=O)Nc1nsc(N2CCCC(C(=O)N3CCN(c4cc(C)ccc4C)CC3)C2)n1 (stereo not given) | 843 |
| Cc1coc2c(C)c3oc(=O)c(CCC(=O)NCCc4c[nH]c5ccccc45)c(C)c3cc12 | 964 |
| CCC(CN1CCOCC1)NC(=O)c1c2c(nc3ccccc13)C(=O)N(C1CCCCC1)C2 (stereo not given) | 610 |
| COc1ccc(CN2C=C(C(=O)OCc3cccc(OC)c3)C(C)=NS2(=O)=O)cc1 | 1100 |
| COc1ncc(C(=O)Nc2ccccc2)c(C)n1 | 698 |
| c1ccc(-n2nnnc2-c2cccc3ccccc23)cc1 | 1010 |
| O=C(NCCCN1CCOC(c2ccccc2)C1)c1ccc(Cl)cc1Cl (stereo not given) | 599 |
| CC(C)(C)c1ccc(C(=O)NC2(c3nc(-c4cccnc4)no3)CCCCC2)cc1 | 1160 |
| Cc1cc(Nc2cccc(C(C)O)c2)nc(-n2cc([N+](=O)[O-])cn2)n1 (stereo not given) | 690 |
| CCOC(=O)c1[nH]c(C)c(CCC(=O)N2CCC(C(=O)NC(C)C)CC2)c1C | 683 |
| O=C(CC1CCN(C(=O)NCc2ccccc2)CC1)N1CCCCC1 | 703 |
| O=C(Cn1c(CO)nc2ccccc21)N1CCCc2ccccc21 | 628 |
| Cc1cccc(NC(=O)c2cnn3c2CCCC3)c1 | 776 |
| Cc1ccc(-c2nc3nc4c(c(N5CCN(c6ccccn6)CC5)n3n2)CCC4)cc1 | 684 |
| Cc1ccccc1CNC(=O)C1(C)Oc2cccnc2N(C)C1=O (stereo not given) | 786 |
| CCC(C)n1[nH]c(=O)c2c1NC(=O)CSC2c1ccc(OC)c(OC)c1 (stereo not given) | 654 |
| O=C(c1nc(-c2cnccn2)no1)N1CCc2ccccc21 | 740 |
| O=C(Cn1c(=O)c2cc(-c3ccco3)nn2c2ncccc21)NCCc1ccccc1 | 797 |
